Reference: ChEMBL document CHEMBL3886982, “Substituted bicyclic dihydropyrimidinones and their use as inhibitors of neutrophil elastase activity” (2016)

Molecular target: T1, Neutrophil elastase (Homo sapiens, UniProt P08246)
T1 sequence (P08246 whole entry): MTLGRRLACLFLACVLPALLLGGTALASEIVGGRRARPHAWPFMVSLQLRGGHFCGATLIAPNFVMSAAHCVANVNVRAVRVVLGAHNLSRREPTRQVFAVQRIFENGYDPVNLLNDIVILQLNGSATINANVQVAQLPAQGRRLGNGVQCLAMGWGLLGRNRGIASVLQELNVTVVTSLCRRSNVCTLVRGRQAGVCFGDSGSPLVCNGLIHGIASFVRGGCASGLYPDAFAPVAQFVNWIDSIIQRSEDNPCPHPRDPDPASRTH
Test: Human Neutrophil Elastase Assay: The following buffers were used: Compound buffer: 100 mM Tris, 500 mM NaCl, adjusted to pH 7.5; Assay buffer: 100 mM Tris, 500 mM NaCl, adjusted to pH 7.5, containing 0.01% BSA.Assay conditions: Test compounds were prediluted in DMSO and subsequently in compound buffer (5% DMSO final). 5 μL of these compound dilutions were mixed with 10 μl Neutrophil elastase …
Description: Human Neutrophil Elastase Assay: The following buffers were used: Compound buffer: 100 mM Tris, 500 mM NaCl, adjusted to pH 7.5; Assay buffer: 100 mM Tris, 500 mM NaCl, adjusted to pH 7.5, containing 0.01% BSA.Assay conditions: Test compounds were prediluted in DMSO and subsequently in compound buffer (5% DMSO final). […] After inactivation of the enzyme, fluorescence intensities were measured at 380 nm excitation and 460 nm emission wavelengths.

Structure (SMILES): CN1C(=O)N(c2cccc(C(F)(F)F)c2)C2=C(C(=O)CC2)C1c1ccc(C#N)cc1-c1ccnn1C (stereo unspecified)
- IC50: 7.3 nM
